EP0555938A1, “Use of phenoxyacetate derivatives for the restoration of neural function” (Albert ROLLAND S.A., priority 1992, dated 1993)

Columns and labels:
[1] = tested on: nerf sciatique; assay: Regeneration of the sciatic nerve after exposure to cold (plantar pain perception, Randal et Sellito apparatus); format: in vivo, rats Charles RIVER; settings: 500 mg/kg P.U/jour
Protocol: L'étude est menée sur des lots de rats Charles RIVER (100-110 g), anesthésiés au Mébubarbital (30 mg/kg I.P).
Le nerf sciatique droit est isolé et on en pratique la congélation sur une longueur de 3 mm, au niveau du tiers supérieur de la cuisse. Cette congélation est réalisée par applications successives, pendant 30 secondes chacune, de petites masses métalliques adaptées sur un champ d'artère et plongées, préalablement, dans l'azote liquide.
Le traitement par les produits à étudier est pratique à partir du premier jour après l'opération (J₁), jusqu'à J₁₂.
La regénération nerveuse éventuelle est recherchée par la mesure de la perception douloureuse au niveau plantaire des deux pattes postérieures des animaux, en utilisant l'appareil de Randal et Sellito qui permet l'évaluation de la sensibilité locale par application d'un poids progressivement augmenté en fonction du temps.
Les résultats sont exprimés à partir des mesures réalisées sur chaque patte, 4 heures après le dernier traitement. La valeur de la regénération de la sensibilité, donc de la regénération nerveuse, est représentée par la différence de réponse au test de la patte au nerf lésé par rapport à la patte contralatérale intacte.
L'analyse statistique est faite sur les deux séries de valeurs par analyse de Kruskall-Wallis et test U de Mann-Whitney. […]

[2] = tested on: nerf sciatique; assay: Speed of sensory reinnervation after freezing lesion of the sciatic nerve (latency of somesthetic evoked potential); format: in vivo, rat whistar mâle; settings: 150 mg/kg, another batch of rats (Fig. 2)
Protocol: La vitesse de réinnervation sensitive après lésion du nerf sciatique et dégénérescence wallerienne a été étudiée chez le rat whistar mâle de 210 g ± 10 g. Le nerf sciatique droit a été lésé par congélation au moyen d'une cryode à cataracte portée à -170°C pendant 30 secondes en 3 points d'une même circonférence, située au tiers supérieur de la cuisse, à 90 ± 5 mm de la pénétration du nerf dans la région plantaire. Le nerf fémoris interne était excisé sur plusieurs cm. La récupération sensitive a été appréciée en mesurant la latence du potentiel évoqué somesthésique recueilli au niveau de l'aire primaire contralatérale et homolatérale, au moyen d'électrodes métalliques extra-durémériennes scéllées et laissées à demeure. La réponse était évoquée en stimulant le coussinet le plus interne de la sole plantaire droite au moyen d'un choc électrique de 5 mA délivré à courant constant pendant 2 ms toutes les 620 ms. Les réponses étaient moyennées de 500 à 2.000 fois et leurs latences mesurées avec une précision de ± 0,5 ms.
La latence de la réponse positive (P1) la plus précoce et à seuil le plus bas, a été mesurée et comparée chez trois groupes d'animaux aux jours J +25, +29, +33, +38, +43. Le groupe de témoins (n=11) a reçu par gavage 6 jours sur 7, 0,5 g/kg de gomme arabique. […]

| Structure (SMILES) | réactivité (perception douloureuse au niveau plantaire, patte lésée vs patte contralatérale) ([1]; sixth day after operation, oral, in water) | amélioration de la réactivité (regénération de la sensibilité) ([1]; twelfth day after operation, 4 h after last treatment, oral (plate no. 3)) | modification dans la regénération des fibres nerveuses [2] |
| --- | --- | --- | --- |
| CN(C)CCOC(=O)COc1ccc(Cl)cc1 [Méclofénoxate] | tendance à une meilleure réactivité | l'amélioration est significative | – |
| CC(C)Nc1ncccn1 [isaxonine] | – | – | aucune modification sensible |
